Experimental findings from ChEMBL document CHEMBL3352046, “Serendipitous discovery of 2-((phenylsulfonyl)methyl)-thieno[3,2-d]pyrimidine derivatives as novel HIV-1 replication inhibitors” (Bioorg Med Chem Lett, 2014) are described below.

A short description of data set [1]: Therapeutic index, ratio of CC50 for human CEmx174 cells expressing GFP to IC50 for HIV-1 LAI infected in human CEMx174-LTR-GFP CG8 cells. The following applies: read-out: Ratio CC50/EC50.
A short description of data set [2]: Cytotoxicity against human CEmx174 cells expressing GFP after 5 days by resazurin assay. It is filed as cell-based. For orientation: Alamar Blue is a resazurin reagent that responds to reducing activity.
The test system of data set [3] is Human immunodeficiency virus 1. As to the kind of experiment: Antiviral activity against HIV-1 LAI infected in human CEMx174-LTR-GFP CG8 cells assessed as inhibition of viral replication after 5 days. It is filed as functional, organism-based. The following applies: Human immunodeficiency virus 1, LAI, 120 h.
Data set [4] has as its target Cytochrome P450 3A4 (Homo sapiens, UniProt P08684). As to the kind of experiment: Inhibition of recombinant CYP3A4 (unknown origin) after 3 mins by LC-MS/MS analysis. It is filed as ADME.
In data set [5] the target is Cytochrome P450 2D6 (Homo sapiens, UniProt P10635). Nature of the data set: Inhibition of recombinant CYP2D6 (unknown origin) after 20 mins by LC-MS/MS analysis. It is filed as ADME.
Sequence of Cytochrome P450 2D6 (P10635 whole entry): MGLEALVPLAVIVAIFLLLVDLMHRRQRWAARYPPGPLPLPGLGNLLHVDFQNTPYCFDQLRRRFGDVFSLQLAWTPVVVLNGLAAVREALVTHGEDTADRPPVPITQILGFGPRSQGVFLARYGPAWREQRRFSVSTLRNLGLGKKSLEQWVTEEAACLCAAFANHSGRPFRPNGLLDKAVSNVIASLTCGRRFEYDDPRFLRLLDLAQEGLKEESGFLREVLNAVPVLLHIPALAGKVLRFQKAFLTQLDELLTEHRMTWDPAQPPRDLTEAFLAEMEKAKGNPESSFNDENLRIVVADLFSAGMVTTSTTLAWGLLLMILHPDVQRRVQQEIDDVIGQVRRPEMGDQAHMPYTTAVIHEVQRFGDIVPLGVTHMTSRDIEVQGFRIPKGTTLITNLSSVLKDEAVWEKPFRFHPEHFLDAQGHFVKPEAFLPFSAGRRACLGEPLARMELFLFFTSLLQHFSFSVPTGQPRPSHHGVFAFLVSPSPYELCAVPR
Data set [6] has as its target Cytochrome P450 2C9 (Homo sapiens, UniProt P11712). Nature of the data set: Inhibition of recombinant CYP2C9 (unknown origin) after 10 mins by LC-MS/MS analysis. It is filed as ADME.
In data set [7] the target is T1, Cytochrome P450 1A2 (Homo sapiens, UniProt P05177).
T1 sequence (P05177 whole entry): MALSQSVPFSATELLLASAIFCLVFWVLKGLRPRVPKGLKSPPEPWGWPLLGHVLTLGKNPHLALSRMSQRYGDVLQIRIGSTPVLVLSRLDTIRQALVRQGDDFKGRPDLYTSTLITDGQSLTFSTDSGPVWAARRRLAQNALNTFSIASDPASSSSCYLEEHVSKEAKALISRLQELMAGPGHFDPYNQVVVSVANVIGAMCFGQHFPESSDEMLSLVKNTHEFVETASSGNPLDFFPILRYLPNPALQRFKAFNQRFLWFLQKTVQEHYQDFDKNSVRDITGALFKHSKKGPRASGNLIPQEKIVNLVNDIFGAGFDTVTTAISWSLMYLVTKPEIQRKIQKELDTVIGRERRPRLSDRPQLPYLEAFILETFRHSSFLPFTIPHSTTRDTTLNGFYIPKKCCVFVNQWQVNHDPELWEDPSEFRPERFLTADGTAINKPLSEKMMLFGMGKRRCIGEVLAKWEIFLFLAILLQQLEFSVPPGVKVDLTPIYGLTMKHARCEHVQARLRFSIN
Nature of the data set: Inhibition of recombinant CYP1A2 (unknown origin) after 10 mins by LC-MS/MS analysis. It is filed as ADME.

Sequence of Cytochrome P450 3A4 (P08684 whole entry): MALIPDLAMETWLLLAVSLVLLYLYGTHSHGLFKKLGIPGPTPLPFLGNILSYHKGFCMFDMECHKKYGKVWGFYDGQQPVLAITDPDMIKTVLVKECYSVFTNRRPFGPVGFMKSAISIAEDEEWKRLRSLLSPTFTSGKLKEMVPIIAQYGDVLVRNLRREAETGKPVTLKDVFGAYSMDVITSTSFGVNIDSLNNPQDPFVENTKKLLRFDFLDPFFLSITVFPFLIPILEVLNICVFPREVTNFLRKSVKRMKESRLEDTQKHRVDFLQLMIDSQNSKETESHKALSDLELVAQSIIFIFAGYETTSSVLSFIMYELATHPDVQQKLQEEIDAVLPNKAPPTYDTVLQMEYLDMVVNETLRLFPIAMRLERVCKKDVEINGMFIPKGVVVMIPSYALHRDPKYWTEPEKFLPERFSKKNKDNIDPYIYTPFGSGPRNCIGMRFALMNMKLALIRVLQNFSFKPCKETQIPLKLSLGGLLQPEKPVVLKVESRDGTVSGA
Sequence of Cytochrome P450 2C9 (P11712 whole entry): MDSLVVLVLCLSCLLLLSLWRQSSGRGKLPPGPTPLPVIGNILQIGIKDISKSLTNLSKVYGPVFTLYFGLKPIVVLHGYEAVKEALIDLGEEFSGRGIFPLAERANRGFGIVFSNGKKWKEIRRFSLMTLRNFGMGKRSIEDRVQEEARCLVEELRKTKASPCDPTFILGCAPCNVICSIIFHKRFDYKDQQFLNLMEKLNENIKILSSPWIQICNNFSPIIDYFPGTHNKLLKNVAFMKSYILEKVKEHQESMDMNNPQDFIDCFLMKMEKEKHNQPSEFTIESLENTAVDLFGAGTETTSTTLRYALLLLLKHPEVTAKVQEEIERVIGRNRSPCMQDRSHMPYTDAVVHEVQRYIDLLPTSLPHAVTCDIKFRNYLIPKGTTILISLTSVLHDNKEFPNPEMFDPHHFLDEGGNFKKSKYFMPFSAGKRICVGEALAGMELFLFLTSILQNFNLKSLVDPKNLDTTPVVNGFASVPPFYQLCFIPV

The term CC50 denotes the concentration that lowers cell viability or growth by half. A lower CC50 goes with greater toxicity to the cells. As usually defined, the EC50 is the concentration giving half of the maximal effect. Consider `O=S(=O)(Cc1nc(-c2ccc(Cl)nc2)c2sccc2n1)c1cccc(Cl)c1`, for which the selectivity ratio in data set [1] is 21. The same compound gave a CC50 at 120 h in data set [2] of 70 µM. Further, the EC50 in data set [3] was determined as 3.2 µM.
For `O=S(=O)(Cc1nc(-c2ccc(F)nc2)c2sccc2n1)c1cccc(Cl)c1`, the selectivity ratio in data set [1] amounted to 6.6. For the same compound, the CC50 at 120 h in data set [2] is 40 µM. Moreover, the EC50 in data set [3] is 6 µM.
On to `Cc1ccnc2c1NC(=O)c1cccnc1N2C1CC1` [NEVIRAPINE], for which the selectivity ratio in data set [1] was over 66. Besides, the CC50 at 120 h in data set [2] is over 10 µM.
As for `COc1ccc(-c2nc(C[S+]([O-])c3cccc(Cl)c3)nc3ccsc23)cn1` (stereo not drawn), the selectivity ratio in data set [1] was over 93. This compound also registered a CC50 at 120 h in data set [2] of over 50 µM. Besides, the EC50 in data set [3] was found to be 0.532 µM.
`CCC1=C(C(=O)OCC2CCCCC2)C(c2cccc(O)c2)NC(=O)N1` (stereo not drawn) came in with a CC50 at 120 h in data set [2] of over 10 µM. The EC50 in data set [3] came to 0.53 µM.
As to `O=S(=O)(Cc1nc(-c2cccnc2)c2sccc2n1)c1cccc(Cl)c1`, in data set [1], the selectivity ratio is over 103. The compound also showed a CC50 at 120 h in data set [2] of over 50 µM. For the same compound, the EC50 in data set [3] was 0.485 µM.
For `COc1ccc(-c2nc(CCc3cccc(Cl)c3)nc3ccsc23)cn1` the same measures were over 31, over 50 µM and 1.6 µM.
In the case of `COc1ccc(Oc2nc(CS(=O)(=O)c3cccc(Cl)c3)nc3ccsc23)cc1`, in data set [1], the selectivity ratio was over 60. In data set [2], this compound displayed a CC50 at 120 h of over 50 µM. In addition, in data set [3], the EC50 stood at 0.831 µM.
What is called IC50 is the midpoint of a concentration-inhibition curve. In the case of `COc1ccc(-c2nc(CS(=O)(=O)c3cccc(Cl)c3)nc3ccsc23)cn1`, the IC50 in data set [4] was 6.71 µM; in data set [5] it was over 10 µM; in data set [6] it was 5.25 µM; in data set [7], over 10 µM. Moreover, in data set [1], the selectivity ratio was over 400. This compound also yielded a CC50 at 120 h in data set [2] of over 10 µM. For the same compound, the EC50 in data set [3] was 0.025 µM.
In the case of `COc1ccc(-c2nc(CS(=O)(=O)c3cccc(Cl)c3)nc3ccsc23)cc1`, in data set [1], the selectivity ratio amounted to 669. Besides, in data set [2], the CC50 at 120 h stood at 69 µM. For the same compound, the EC50 in data set [3] was 0.103 µM.
For `COc1ccc(-c2nc(CC(O)c3cccc(Cl)c3)nc3ccsc23)cn1` (stereo not drawn) the same measures were 3.4, 31 µM and 9 µM.
The like results for `COc1ccc(-c2nc(CSc3cccc(Br)c3)nc3ccsc23)cn1` were, in that order, over 316, over 50 µM and 0.158 µM.
Regarding `COc1ccc(-c2nc(CSc3ccc(C(F)(F)F)cn3)nc3ccsc23)cn1`, in data set [1], the selectivity ratio is over 2.7. The same compound returned a CC50 at 120 h in data set [2] of over 50 µM. Moreover, the EC50 in data set [3] worked out at 18 µM.
Consider `COc1ccc(-c2nc(C(F)(F)S(=O)(=O)c3cccc(Cl)c3)nc3ccsc23)cn1`, for which the selectivity ratio in data set [1] was over 210. This compound had a CC50 at 120 h in data set [2] of over 50 µM. Further, in data set [3], the EC50 is 0.237 µM.
In the case of `O=S(=O)(Cc1nc(-c2ccncc2)c2sccc2n1)c1cccc(Cl)c1`, in data set [1], the selectivity ratio was over 264. In addition, in data set [2], the CC50 at 120 h was over 50 µM. In data set [3], the EC50 was 0.189 µM.
In the case of `O=S(=O)(Cc1nc(N2CCOCC2)c2sccc2n1)c1cccc(Cl)c1`, the selectivity ratio in data set [1] was over 84. The compound also had a 50% cytotoxic concentration (CC50) at 120 h in data set [2] of over 50 µM. The EC50 in data set [3] was determined as 0.59 µM.
With `O=S(=O)(Cc1nc(-c2ccoc2)c2sccc2n1)c1cccc(Cl)c1`, the selectivity ratio in data set [1] is over 64. For the same compound, the cytotoxic concentration (CC50) at 120 h in data set [2] was over 50 µM. Also, in data set [3], the EC50 worked out at 0.775 µM.
`COc1ccc(-c2nc(C(C)S(=O)(=O)c3cccc(Cl)c3)nc3ccsc23)cn1` (stereo not drawn): the selectivity ratio in data set [1] is over 595. The same compound came in with a CC50 at 120 h in data set [2] of over 50 µM. Besides, the EC50 in data set [3] is 0.084 µM.
Take `O=S(=O)(Cc1nc(-c2cccs2)c2sccc2n1)c1cccc(Cl)c1`: the selectivity ratio in data set [1] is over 357. In data set [2], this compound had a CC50 at 120 h of over 50 µM. Moreover, the EC50 in data set [3] came to 0.14 µM.
For `COc1ccc(-c2nc(C3(S(=O)(=O)c4cccc(Cl)c4)CC3)nc3ccsc23)cn1` the same measures were over 724, over 50 µM and 0.069 µM.
For `COc1ccc(-c2nc(CSc3cccc(Cl)c3)nc3ccsc23)cn1` the same measures were over 714, over 10 µM and 0.014 µM.
Compound `c1ccc(-c2cc(CNc3nncc(-c4cccc5ccccc45)n3)n[nH]2)cc1` had a CC50 at 120 h in data set [2] of over 10 µM. For the same compound, in data set [3], the EC50 is 0.27 µM.
As to `COc1ccc(-c2nc(CNc3cccc(Cl)c3)nc3ccsc23)cn1`, the selectivity ratio in data set [1] is over 74. In data set [2], this compound gave a CC50 at 120 h of over 50 µM. Also, the EC50 in data set [3] was 0.672 µM.
Take `COc1ccc(-c2nc(COc3cccc(Cl)c3)nc3ccsc23)cn1`: in data set [1], the selectivity ratio was over 130. This compound also displayed a CC50 at 120 h in data set [2] of over 50 µM. Besides, in data set [3], the EC50 is 0.384 µM.
As for `COc1ccc(-c2nc(CC(=O)c3cccc(Cl)c3)nc3ccsc23)cn1`, the selectivity ratio in data set [1] was found to be 150. Besides, it took 30 µM to reach half-maximal cytotoxicity in data set [2] (CC50 at 120 h). Also, in data set [3], the EC50 was found to be 0.2 µM.
Consider `COc1ccc(-c2nc(C(C)(C)S(=O)(=O)c3cccc(Cl)c3)nc3ccsc23)cn1`, for which the selectivity ratio in data set [1] was over 21. Further, in data set [2], the CC50 at 120 h was over 50 µM. In addition, in data set [3], the EC50 was 2.3 µM.
Regarding `COc1ccc(-c2nc(CSc3ccc(F)cc3F)nc3ccsc23)cn1`, the selectivity ratio in data set [1] is over 10. In data set [2], the CC50 at 120 h was over 50 µM. Moreover, the EC50 in data set [3] is 5 µM.
`COc1ccc(-c2nc(C(F)S(=O)(=O)c3cccc(Cl)c3)nc3ccsc23)cn1` (stereo not drawn): in data set [1], the selectivity ratio is over 574. The compound also had a CC50 at 120 h in data set [2] of over 50 µM. For the same compound, the EC50 in data set [3] came to 0.087 µM.
For the compound `O=S(=O)(Cc1nc(-c2ccnc(Cl)c2)c2sccc2n1)c1cccc(Cl)c1`, in data set [1], the selectivity ratio came to 233. This compound came in with a CC50 at 120 h in data set [2] of 63 µM. In addition, the EC50 in data set [3] is 0.27 µM.
For `COc1ccc(-c2nc(CSc3cc(Cl)ccc3Cl)nc3ccsc23)cn1` the same measures were over 68, over 50 µM and 0.728 µM.
The like results for `COc1ccc(Nc2nc(CS(=O)(=O)c3cccc(Cl)c3)nc3ccsc23)cc1` were, in that order, 18.8, 60 µM and 3.2 µM.
As for `COc1ccc(-c2nc(CSc3cccc(Cl)c3Cl)nc3ccsc23)cn1`, the selectivity ratio in data set [1] is over 10. The 50% cytotoxic concentration (CC50) at 120 h in data set [2] is over 50 µM. The EC50 in data set [3] amounted to 5 µM.
For `COc1ccc(-c2nc(/C=C\c3cccc(Cl)c3)nc3ccsc23)cn1` the same measures were 6.6, 53 µM and 8 µM.
Regarding `COc1ccc(-c2nc(CSCc3cccc(Cl)c3)nc3ccsc23)cn1`, the selectivity ratio in data set [1] is over 2.2. In addition, in data set [2], the half-maximal cytotoxic concentration (CC50) at 120 h is over 50 µM. For the same compound, the EC50 in data set [3] came to 23 µM.
For `COc1ccc(-c2nc(CSc3cccc(C(F)(F)F)c3)nc3ccsc23)cn1` the same measures were over 190, over 50 µM and 0.262 µM.
The like results for `COc1ccc(-c2nc(CCS(=O)(=O)c3cccc(Cl)c3)nc3ccsc23)cn1` were, in that order, over 9.2, over 50 µM and 5.4 µM.
With `O=c1ccc(-c2nc(CS(=O)(=O)c3cccc(Cl)c3)nc3ccsc23)c[nH]1`, the selectivity ratio in data set [1] was over 54. The same compound returned a CC50 at 120 h in data set [2] of over 50 µM. In addition, the EC50 in data set [3] is 0.915 µM.
For `COc1ccc(-c2nc(CSc3cc(C)cc(C)c3)nc3ccsc23)cn1` the same measures were over 64, over 50 µM and 0.774 µM.
Take `COc1ccc(-c2nc(S(=O)(=O)c3cccc(Cl)c3)nc3ccsc23)cn1`: the selectivity ratio in data set [1] was over 155. The CC50 at 120 h in data set [2] is over 50 µM. In addition, in data set [3], the EC50 was 0.322 µM.
